The values below come from patent US10294246B2, “Substituted boronic acids and boronate esters as immunoproteasome inhibitors” (MERCK PATENT GMBH, priority 2014, dated 2019).

The target of assay [1] is human immunoproteasome (LMP7) (Homo sapiens (Human), UniProt P28062). Nature of the assay: Determination of LMP7 activity (fluorescence intensity assay, Suc-LLVY-AMC). In kind it is biochemical. Conditions: for Selectivity LMP7 vs Beta5: LMP7 versus Beta5; for IC50: purified human immunoproteasome 0.25 nM, Suc-LLVY-AMC 40 μM. As for the experimental part: Determination of LMP7 Activity:
Measurement of LMP7 inhibition is performed in 384 well format based on fluorescence intensity assay.
Purified human immunoproteasome (0.25 nM) and serial diluted compounds in DMSO (range of concentrations from 30 μM to […]) or controls are incubated for 20 minutes at 25° C. in assay buffer containing 50 mM Tris pH 7.4, 0.03% SDS, 1 mM EDTA and 1% DMSO. The reaction is initiated by the addition of the fluorogenic peptide substrate, Suc-LLVY-AMC (Bachem 1-1395), at a concentration of 40 μM. After 60 minutes of incubation at 37° C., fluorescence intensity is measured at λex=350 nm and λem=450 nm with a fluorescence reader (Perkin Elmer Envision reader or equivalent).

For assay [2], the target named is human constitutive proteasome (Beta5) (Homo sapiens (Human), UniProt P28074). Nature of the assay: Determination of Beta5 activity (fluorescence intensity assay, Suc-LLVY-AMC). Conditions: purified human constitutive proteasome 1.25 nM, Suc-LLVY-AMC 40 μM. In kind it is biochemical. How it is done: Determination of Beta5 Activity:
Measurement of Beta5 inhibition is performed in 384 well format based on fluorescence intensity assay.
Purified human constitutive proteasome (1.25 nM) and serial diluted compounds in DMSO (range of concentrations from 30 μM to […]) or controls are incubated for 20 minutes at 25° C. in assay buffer containing 50 mM Tris pH 7.4, 0.03% SDS, 1 mM EDTA and 1% DMSO. The reaction is initiated by the addition of the fluorogenic peptide substrate, Suc-LLVY-AMC (Bachem 1-1395), at a concentration of 40 μM. After 60 minutes of incubation at 37° C., fluorescence intensity is measured at λex=350 nm and λem=450 nm with a fluorescence reader (Perkin Elmer Envision reader or equivalent).

Turning to `COc1ccc(CC(=O)N[C@@H](C[C@H]2COc3c(C)cccc32)B(O)O)cc1` [Compound No. 88, [(1R)-1-[[2-(4-methoxyphenyl)acetyl]amino]-2-[(3R)-7-methyl-2,3-dihydrobenzofuran-3-yl]ethyl]boronic acid], in assay [1], the “Selectivity LMP7 vs Beta5” value was “+++++ (Selectivity ≥ 100)” and the IC50 (in general, the point on the concentration scale where inhibition reaches its midpoint) was in the range of 0.05 to 0.5 µM. The same molecule returned an IC50 in assay [2] above 5 µM.

In the case of `O=C(Cc1ccccc1OC(F)(F)F)N[C@@H](Cc1coc2ccccc12)B(O)O` [Compound No. 28, [(1R)-2-(benzofuran-3-yl)-1-[[2-[2-(trifluoromethoxy)phenyl]acetyl]-amino]ethyl]boronic acid], in assay [1], the “Selectivity LMP7 vs Beta5” value is given as “+++++ (Selectivity ≥ 100)” and the IC50 was below 0.05 µM. Further, the concentration for half-maximal inhibition (IC50) in assay [2] fell in the range of 0.5 to 5 µM.

On to `O=C(Cc1cccc(OCCO)c1)N[C@@H](Cc1coc2ccccc12)B(O)O` [Compound No. 41, [(1R)-2-(benzofuran-3-yl)-1-[[2-[3-(2-hydroxyethoxy)phenyl]acetyl]-amino]ethyl]boronic acid], for which, in assay [1], the “Selectivity LMP7 vs Beta5” value is listed as “+++++ (Selectivity ≥ 100)” and the 50% inhibitory concentration (IC50) was below 0.05 µM. This molecule also had an IC50 in assay [2] of 0.05 to 0.5 µM.

As for `C[C@@H](C(=O)N[C@@H](C[C@@H]1COc2ccccc21)B(O)O)c1ccccc1C(=O)N(C)C` [Compound No. 99, [(1R)-2-[(3S)-2,3-dihydrobenzofuran-3-yl]-1-[[(2R)-2-[2-(dimethylcarbamoyl)phenyl]propanoyl]amino]ethyl]boronic acid], in assay [1], the “Selectivity LMP7 vs Beta5” value is reported as “+++++ (Selectivity ≥ 100)” and the IC50 is 0.05 to 0.5 µM. For the same molecule, the IC50 in assay [2] is above 5 µM.

`COc1ccc(CC(=O)N[C@@H](C[C@@H]2COc3c(C)cccc32)B(O)O)cc1` [Compound No. 89, [(1R)-1-[[2-(4-methoxyphenyl)acetyl]amino]-2-[(3S)-7-methyl-2,3-dihydrobenzofuran-3-yl]ethyl]boronic acid]: in assay [1], the “Selectivity LMP7 vs Beta5” value is given as “+++++ (Selectivity ≥ 100)” and the half-maximal inhibitory concentration (IC50) is below 0.05 µM. In assay [2], this molecule displayed an IC50 above 5 µM.

In the case of `O=C(Cc1ccc(-c2ccccc2)cc1)N[C@@H](Cc1coc2ccccc12)B(O)O` [Compound No. 67, [(1R)-2-(benzofuran-3-yl)-1-[[2-(4-phenylphenyl)acetyl]amino]ethyl]-boronic acid], in assay [1], the “Selectivity LMP7 vs Beta5” value is given as “++ (10 ≤ Selectivity < 50)” and the IC50 was below 0.05 µM. The molecule further showed a half-maximal inhibitory concentration (IC50) in assay [2] of 0.5 to 5 µM.

On to `COc1ccc(CC(C(=O)N[C@@H](Cc2coc3ccccc23)B(O)O)c2ccccc2)cc1` (stereo partly drawn) [Compound No. 71, [(1R)-2-(benzofuran-3-yl)-1-[[3-(4-methoxyphenyl)-2-phenyl-propanoyl]amino]ethyl]boronic acid], for which, in assay [1], the “Selectivity LMP7 vs Beta5” value is recorded as “++++ (70 ≤ Selectivity < 100)” and the IC50 is below 0.05 µM. Also, the 50% inhibitory concentration (IC50) in assay [2] lay in the range of 0.5 to 5 µM.

`O=C(Cc1ccccc1)N[C@@H](Cc1coc2ccccc12)B(O)O` [Compound No. 6, [(1R)-2-(benzofuran-3-yl)-1-[(2-phenylacetyl)amino]ethyl]boronic acid]: in assay [1], the “Selectivity LMP7 vs Beta5” value is recorded as “+++++ (Selectivity ≥ 100)” and the IC50 is below 0.05 µM. In assay [2], this molecule came in with an IC50 of 0.05 to 0.5 µM.

Take `O=C(Cc1ccccc1)N[C@@H](Cc1coc2c(F)cccc12)B(O)O` [Compound No. 125, [(1R)-2-(7-fluorobenzofuran-3-yl)-1-[(2-phenylacetyl)amino]ethyl]-boronic acid]: in assay [1], the “Selectivity LMP7 vs Beta5” value is given as “+++++ (Selectivity ≥ 100)” and the IC50 was below 0.05 µM. In addition, the IC50 in assay [2] was 0.05 to 0.5 µM.

As for `Cc1ccc(C[C@H](NC(=O)[C@@H](O)c2ccccc2)B(O)O)cc1` [Compound No. 17, [(1R)-1-[[(2S)-2-hydroxy-2-phenyl-acetyl]amino]-2-(p-tolyl)ethyl]-boronic acid], in assay [1], the “Selectivity LMP7 vs Beta5” value is “++ (10 ≤ Selectivity < 50)” and the IC50 fell in the range of 0.05 to 0.5 µM. For the same molecule, the half-inhibitory concentration (IC50) in assay [2] is above 5 µM.

Turning to `O=C(Cc1ccccc1C(=O)N1CCOCC1)N[C@@H](Cc1coc2ccccc12)B(O)O` [Compound No. 63, [(1R)-2-(benzofuran-3-yl)-1-[[2-[2-(morpholine-4-carbonyl)phenyl]-acetyl]amino]ethyl]boronic acid], in assay [1], the “Selectivity LMP7 vs Beta5” value is recorded as “+++++ (Selectivity ≥ 100)” and the IC50 was below 0.05 µM. This molecule also gave an IC50 in assay [2] of 0.5 to 5 µM.

As for `O=C(Cc1ccccc1C(F)(F)F)N[C@@H](Cc1coc2ccccc12)B(O)O` [Compound No. 24, [(1R)-2-(benzofuran-3-yl)-1-[[2-[2-(trifluoromethyl)phenyl]acetyl]-amino]ethyl]boronic acid], in assay [1], the “Selectivity LMP7 vs Beta5” value was “+++++ (Selectivity ≥ 100)” and the half-maximal inhibitory concentration (IC50) was below 0.05 µM. For the same molecule, the half-maximal inhibitory concentration (IC50) in assay [2] was in the range of 0.5 to 5 µM.

With `O=C(Cc1ccncc1)N[C@@H](Cc1coc2ccccc12)B(O)O` [Compound No. 19, [(1R)-2-(benzofuran-3-yl)-1-[[2-(4-pyridyl)acetyl]amino]ethyl]boronic acid], in assay [1], the “Selectivity LMP7 vs Beta5” value is reported as “+++ (50 ≤ Selectivity < 70)” and the 50% inhibitory concentration (IC50) is below 0.05 µM. Moreover, in assay [2], the IC50 lay within 0.5 to 5 µM.

For the molecule `COc1ccc(CC(=O)N[C@H](Cc2coc3c(C)cccc23)B(O)O)cc1` [Compound No. 81, [(1S)-1-[[2-(4-methoxyphenyl)acetyl]amino]-2-(7-methylbenzofuran-3-yl)ethyl]boronic acid], in assay [1], the “Selectivity LMP7 vs Beta5” value is “+++++ (Selectivity ≥ 100)” and the 50% inhibitory concentration (IC50) is 0.05 to 0.5 µM. The same molecule came in with an IC50 in assay [2] above 5 µM.

Take `C[C@@H](C(=O)N[C@@H](Cc1coc2ccccc12)B(O)O)c1ccccc1C(=O)N(C)C` [Compound No. 97, [(1R)-2-(benzofuran-3-yl)-1-[[(2R)-2-[2-(dimethylcarbamoyl)-phenyl]propanoyl]amino]ethyl]boronic acid]: in assay [1], the “Selectivity LMP7 vs Beta5” value was “+++++ (Selectivity ≥ 100)” and the IC50 was 0.05 to 0.5 µM. The molecule further had a half-maximal inhibitory concentration (IC50) in assay [2] above 5 µM.

`Cc1ccc(C[C@H](NC(=O)Cc2ccc(NC(=O)C(F)(F)F)cc2)B(O)O)c(C)c1` [Compound No. 53, [(1R)-2-(2,4-dimethylphenyl)-1-[[2-[4-[(2,2,2-trifluoroacetyl)amino]-phenyl]acetyl]amino]ethyl]boronic acid]: in assay [1], the “Selectivity LMP7 vs Beta5” value is “++ (10 ≤ Selectivity < 50)” and the IC50 is below 0.05 µM. This molecule showed a 50% inhibitory concentration (IC50) in assay [2] of 0.5 to 5 µM.

Regarding `Cc1ccc(C[C@H](NC(=O)Cc2ccccc2)B(O)O)c(C)c1` [Compound No. 29, [(1R)-2-(2,4-dimethylphenyl)-1-[(2-phenylacetyl)amino]ethyl]boronic acid], the “Selectivity LMP7 vs Beta5” value in assay [1] is “+++++ (Selectivity ≥ 100)”. Also, the IC50 in assay [1] was 0.05 to 0.5 µM; in assay [2], above 5 µM.

As for `O=C(N[C@@H](Cc1coc2ccccc12)B(O)O)C(F)(F)c1ccccc1` [Compound No. 23, [(1R)-2-(benzofuran-3-yl)-1-[(2,2-difluoro-2-phenyl-acetyl)amino]-ethyl]boronic acid], the “Selectivity LMP7 vs Beta5” value in assay [1] is listed as “+++++ (Selectivity ≥ 100)”. Moreover, the half-inhibitory concentration (IC50) is below 0.05 µM in assay [1] and 0.5 to 5 µM in assay [2].

For `Cc1ccc(C[C@H](NC(=O)Cc2ccc(N(C)C)cc2)B(O)O)c(C)c1` [Compound No. 44, [(1R)-1-[[2-(4-dimethylaminophenyl)acetyl]amino]-2-(2,4-dimethylphenyl)ethyl]boronic acid], in assay [1], the “Selectivity LMP7 vs Beta5” value was “+++++ (Selectivity ≥ 100)”. Besides, the IC50 in assay [1] is below 0.05 µM; in assay [2], above 5 µM.

Consider `Cc1ccc(C[C@H](NC(=O)C2(c3ccccc3)CC2)B(O)O)c(C)c1` [Compound No. 36, [(1R)-2-(2,4-dimethylphenyl)-1-[(1-phenylcyclopropanecarbonyl)-amino]ethyl]boronic acid], for which, in assay [1], the “Selectivity LMP7 vs Beta5” value is given as “+ (Selectivity < 10)”. The values for the half-maximal inhibitory concentration (IC50) in assay [1] and in assay [2] were 0.5 to 5 µM and above 5 µM, respectively.

For the molecule `CCNC(=O)c1ccccc1CC(=O)N[C@@H](Cc1coc2ccccc12)B(O)O` [Compound No. 65, [(1R)-2-(benzofuran-3-yl)-1-[[2-[2-(ethylcarbamoyl)phenyl]acetyl]-amino]ethyl]boronic acid], in assay [1], the “Selectivity LMP7 vs Beta5” value was “++++ (70 ≤ Selectivity < 100)” and the IC50 was below 0.05 µM. The molecule also displayed an IC50 in assay [2] of 0.5 to 5 µM.

As for `O=C(Cc1ccccc1)N[C@@H](Cc1coc2c(Cl)cccc12)B(O)O` [Compound No. 85, [(1R)-2-(7-chlorobenzofuran-3-yl)-1-[(2-phenylacetyl)amino]ethyl]-boronic acid], in assay [1], the “Selectivity LMP7 vs Beta5” value is recorded as “+++++ (Selectivity ≥ 100)” and the IC50 is below 0.05 µM. Also, the IC50 in assay [2] lay within 0.5 to 5 µM.

Turning to `C[C@H](C(=O)N[C@@H](Cc1coc2ccccc12)B(O)O)c1ccccc1C(=O)N(C)C` [Compound No. 96, [(1R)-2-(benzofuran-3-yl)-1-[[(2S)-2-[2-(dimethylcarbamoyl)phenyl]-propanoyl]amino]ethyl]boronic acid], in assay [1], the “Selectivity LMP7 vs Beta5” value was “+++++ (Selectivity ≥ 100)” and the IC50 is 0.05 to 0.5 µM. Moreover, the half-maximal inhibitory concentration (IC50) in assay [2] was above 5 µM.
